Assay [1] deals with Cyclin-dependent kinase 20 (Homo sapiens) (UniProt Q8IZL9). Description: Selectivity interaction (Kinase panel (KiNativ target engagement assay in Jurkat cells)) EUB0001635a CDK20. The class given is cell-based. As to conditions: Selectivity number of off-targets 0.0, Selectivity number of targets 233.0, Source Knowledge https://www.sciencedirect.com/science/article/pii/S2451945619300674?via%3Dihub, at 1 µM.

Assay [2] addresses Mitogen-activated protein kinase 14 (Homo sapiens, UniProt Q16539). As to conditions: at 10 µM.
Assay [3] has as its target T1, Serine/threonine-protein kinase ULK2 (Homo sapiens) (UniProt Q8IYT8).
T1 sequence (whole entry): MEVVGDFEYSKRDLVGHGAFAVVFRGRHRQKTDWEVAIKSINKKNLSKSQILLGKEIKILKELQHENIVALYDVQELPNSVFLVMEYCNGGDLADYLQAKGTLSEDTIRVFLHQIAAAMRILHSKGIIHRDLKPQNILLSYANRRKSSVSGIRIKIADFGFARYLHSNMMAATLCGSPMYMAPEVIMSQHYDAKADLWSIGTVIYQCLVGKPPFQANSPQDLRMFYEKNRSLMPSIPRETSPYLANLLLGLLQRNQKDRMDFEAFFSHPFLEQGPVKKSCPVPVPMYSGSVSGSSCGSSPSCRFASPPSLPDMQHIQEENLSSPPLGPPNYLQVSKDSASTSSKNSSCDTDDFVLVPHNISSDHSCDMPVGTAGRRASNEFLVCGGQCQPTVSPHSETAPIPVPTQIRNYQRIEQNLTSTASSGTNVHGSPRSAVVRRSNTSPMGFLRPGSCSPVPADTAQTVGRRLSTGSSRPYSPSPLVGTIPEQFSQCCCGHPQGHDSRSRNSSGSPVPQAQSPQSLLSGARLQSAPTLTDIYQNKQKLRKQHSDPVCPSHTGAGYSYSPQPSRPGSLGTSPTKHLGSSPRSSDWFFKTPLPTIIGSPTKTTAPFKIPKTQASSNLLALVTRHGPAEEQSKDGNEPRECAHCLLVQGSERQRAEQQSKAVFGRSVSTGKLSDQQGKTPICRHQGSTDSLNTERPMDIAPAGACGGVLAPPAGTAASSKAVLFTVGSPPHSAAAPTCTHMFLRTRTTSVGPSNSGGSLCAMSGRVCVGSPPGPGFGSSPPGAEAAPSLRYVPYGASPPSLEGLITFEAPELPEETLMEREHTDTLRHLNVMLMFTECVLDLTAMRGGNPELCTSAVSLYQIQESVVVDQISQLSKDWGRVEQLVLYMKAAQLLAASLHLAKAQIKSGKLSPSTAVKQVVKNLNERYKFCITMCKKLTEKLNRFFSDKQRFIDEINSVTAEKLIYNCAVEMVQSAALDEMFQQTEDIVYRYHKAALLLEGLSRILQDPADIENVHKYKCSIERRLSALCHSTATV
The conditions noted are these: at 10 µM.

The target of assay [4] is Serine/threonine-protein kinase PAK 6 (Homo sapiens) (UniProt Q9NQU5). Briefly: Selectivity interaction (KinomeScan (DiscoverX)) EUB0000666a PAK6. The conditions noted are these: at 10 µM.
Assay [5] addresses Cyclin-dependent kinase 9 (Homo sapiens, UniProt P50750). Description: Selectivity interaction (KinomeScan (DiscoverX)) EUB0000655a CDK9. The conditions noted are these: at 10 µM.
Assay [6] has as its target BDNF/NT-3 growth factors receptor (Homo sapiens) (UniProt Q16620). Briefly: Selectivity interaction (KinomeScan (DiscoverX)) EUB0001619a NTRK2. As to conditions: at 1 µM.
Assay [7] has as its target T2, Serine/threonine-protein kinase haspin (Homo sapiens) (UniProt Q8TF76).
T2 sequence (whole entry): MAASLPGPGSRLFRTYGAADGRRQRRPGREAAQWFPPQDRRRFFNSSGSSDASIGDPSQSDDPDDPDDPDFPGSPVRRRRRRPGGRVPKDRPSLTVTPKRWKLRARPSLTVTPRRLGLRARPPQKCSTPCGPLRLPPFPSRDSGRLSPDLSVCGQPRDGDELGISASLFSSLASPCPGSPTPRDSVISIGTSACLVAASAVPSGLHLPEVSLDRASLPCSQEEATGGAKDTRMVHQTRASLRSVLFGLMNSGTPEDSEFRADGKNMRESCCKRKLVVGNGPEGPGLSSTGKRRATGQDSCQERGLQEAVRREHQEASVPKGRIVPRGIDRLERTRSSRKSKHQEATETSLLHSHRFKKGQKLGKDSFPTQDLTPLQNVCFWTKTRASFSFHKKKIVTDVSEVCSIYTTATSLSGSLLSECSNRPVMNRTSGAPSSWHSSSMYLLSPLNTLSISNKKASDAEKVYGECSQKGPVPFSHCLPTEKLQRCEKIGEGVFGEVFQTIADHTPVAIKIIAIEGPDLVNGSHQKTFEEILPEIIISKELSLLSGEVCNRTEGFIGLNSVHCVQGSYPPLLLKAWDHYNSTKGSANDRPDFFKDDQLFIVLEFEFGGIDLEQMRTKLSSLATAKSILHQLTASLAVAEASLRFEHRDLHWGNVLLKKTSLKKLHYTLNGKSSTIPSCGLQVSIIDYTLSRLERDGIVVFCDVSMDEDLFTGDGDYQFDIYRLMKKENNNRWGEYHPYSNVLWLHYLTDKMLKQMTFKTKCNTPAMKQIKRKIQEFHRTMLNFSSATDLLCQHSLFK
Briefly: Selectivity interaction (KinomeScan (DiscoverX)) EUB0000695a GSG2. As to conditions: at 100 nM.

In assay [8] the target is Phosphatidylinositol 4,5-bisphosphate 3-kinase catalytic subunit beta isoform (Homo sapiens) (UniProt P42338). Briefly: Selectivity interaction (KinomeScan (DiscoverX)) EUB0000595a PIK3CB. As to conditions: at 10 µM.
Chain of Phosphatidylinositol 4,5-bisphosphate 3-kinase catalytic subunit beta isoform (Homo sapiens) (P42338 whole entry, looked up, canonical isoform): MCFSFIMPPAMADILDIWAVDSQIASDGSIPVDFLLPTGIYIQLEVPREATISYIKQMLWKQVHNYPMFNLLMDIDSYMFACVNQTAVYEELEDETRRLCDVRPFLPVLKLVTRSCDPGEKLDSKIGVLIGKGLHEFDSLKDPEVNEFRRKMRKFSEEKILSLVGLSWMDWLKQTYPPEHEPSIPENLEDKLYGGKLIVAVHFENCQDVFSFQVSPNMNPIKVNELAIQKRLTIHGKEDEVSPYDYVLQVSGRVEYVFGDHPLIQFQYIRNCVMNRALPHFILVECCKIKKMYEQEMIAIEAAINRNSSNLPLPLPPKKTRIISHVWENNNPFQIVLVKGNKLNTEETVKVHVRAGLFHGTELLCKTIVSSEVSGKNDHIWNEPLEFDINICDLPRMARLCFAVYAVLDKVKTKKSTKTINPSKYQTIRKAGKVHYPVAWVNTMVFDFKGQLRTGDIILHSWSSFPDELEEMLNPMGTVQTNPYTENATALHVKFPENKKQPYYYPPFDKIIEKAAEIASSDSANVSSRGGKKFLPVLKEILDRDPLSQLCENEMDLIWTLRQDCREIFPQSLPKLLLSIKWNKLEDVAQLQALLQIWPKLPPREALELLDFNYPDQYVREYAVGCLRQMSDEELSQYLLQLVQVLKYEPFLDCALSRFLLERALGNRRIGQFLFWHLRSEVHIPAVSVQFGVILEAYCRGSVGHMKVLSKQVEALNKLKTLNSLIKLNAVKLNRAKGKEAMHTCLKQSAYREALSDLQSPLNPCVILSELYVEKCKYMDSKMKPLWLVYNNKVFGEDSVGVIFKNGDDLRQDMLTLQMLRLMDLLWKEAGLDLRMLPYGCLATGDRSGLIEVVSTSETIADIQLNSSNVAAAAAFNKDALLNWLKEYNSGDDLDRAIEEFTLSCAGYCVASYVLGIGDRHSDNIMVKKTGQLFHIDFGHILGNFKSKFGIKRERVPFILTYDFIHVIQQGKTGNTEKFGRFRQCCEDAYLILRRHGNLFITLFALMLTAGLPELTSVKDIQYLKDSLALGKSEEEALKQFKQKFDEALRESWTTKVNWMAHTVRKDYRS

Chain of BDNF/NT-3 growth factors receptor (Homo sapiens) (Q16620 32-822 limits assumed): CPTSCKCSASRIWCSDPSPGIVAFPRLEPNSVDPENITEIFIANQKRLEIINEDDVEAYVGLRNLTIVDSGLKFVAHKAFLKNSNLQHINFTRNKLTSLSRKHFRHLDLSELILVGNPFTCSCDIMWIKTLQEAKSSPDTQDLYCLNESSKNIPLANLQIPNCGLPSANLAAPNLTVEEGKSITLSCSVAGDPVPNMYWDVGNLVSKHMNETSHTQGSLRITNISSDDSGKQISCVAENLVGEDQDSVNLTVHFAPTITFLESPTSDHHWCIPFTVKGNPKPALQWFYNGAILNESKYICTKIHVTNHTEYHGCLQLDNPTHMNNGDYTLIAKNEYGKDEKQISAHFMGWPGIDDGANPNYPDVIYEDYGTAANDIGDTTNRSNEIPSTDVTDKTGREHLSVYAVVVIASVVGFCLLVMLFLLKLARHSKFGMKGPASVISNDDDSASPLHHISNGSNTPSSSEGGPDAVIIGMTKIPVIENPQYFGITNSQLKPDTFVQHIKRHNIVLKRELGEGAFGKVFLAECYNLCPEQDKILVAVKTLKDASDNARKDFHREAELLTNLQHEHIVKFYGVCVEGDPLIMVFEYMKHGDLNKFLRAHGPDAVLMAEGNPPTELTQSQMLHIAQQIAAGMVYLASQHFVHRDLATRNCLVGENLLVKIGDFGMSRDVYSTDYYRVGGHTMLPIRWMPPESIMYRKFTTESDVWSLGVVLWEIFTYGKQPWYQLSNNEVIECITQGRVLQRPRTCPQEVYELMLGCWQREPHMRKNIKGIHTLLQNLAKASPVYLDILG
Chain of Serine/threonine-protein kinase PAK 6 (Homo sapiens) (Q9NQU5 whole entry, looked up): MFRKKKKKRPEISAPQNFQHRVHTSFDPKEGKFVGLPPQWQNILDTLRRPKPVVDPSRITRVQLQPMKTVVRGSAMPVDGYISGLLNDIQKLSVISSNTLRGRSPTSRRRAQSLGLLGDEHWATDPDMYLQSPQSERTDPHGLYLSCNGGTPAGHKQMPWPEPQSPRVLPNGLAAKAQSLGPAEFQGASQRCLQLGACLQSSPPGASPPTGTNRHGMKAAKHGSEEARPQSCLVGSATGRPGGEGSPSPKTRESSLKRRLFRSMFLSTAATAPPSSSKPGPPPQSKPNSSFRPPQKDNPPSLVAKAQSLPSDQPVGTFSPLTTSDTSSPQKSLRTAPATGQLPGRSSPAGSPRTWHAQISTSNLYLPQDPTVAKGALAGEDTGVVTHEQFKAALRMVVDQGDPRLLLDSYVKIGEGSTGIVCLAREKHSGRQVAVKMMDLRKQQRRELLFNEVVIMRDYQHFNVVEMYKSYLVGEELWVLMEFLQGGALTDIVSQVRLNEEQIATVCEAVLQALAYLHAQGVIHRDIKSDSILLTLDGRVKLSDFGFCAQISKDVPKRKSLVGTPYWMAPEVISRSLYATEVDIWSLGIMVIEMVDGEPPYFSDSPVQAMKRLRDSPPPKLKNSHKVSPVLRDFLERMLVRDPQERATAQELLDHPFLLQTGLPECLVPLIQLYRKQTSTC
Chain of Cyclin-dependent kinase 9 (P50750 whole entry): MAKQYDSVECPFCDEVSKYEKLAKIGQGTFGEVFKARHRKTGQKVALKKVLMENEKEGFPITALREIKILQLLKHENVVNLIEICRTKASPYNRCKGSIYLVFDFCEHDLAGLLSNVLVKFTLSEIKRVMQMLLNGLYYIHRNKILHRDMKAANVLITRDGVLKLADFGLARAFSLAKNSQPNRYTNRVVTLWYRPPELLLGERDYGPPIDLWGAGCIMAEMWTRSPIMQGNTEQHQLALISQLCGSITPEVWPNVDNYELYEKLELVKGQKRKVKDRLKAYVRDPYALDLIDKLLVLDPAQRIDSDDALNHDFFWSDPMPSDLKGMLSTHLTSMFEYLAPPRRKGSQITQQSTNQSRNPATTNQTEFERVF
Chain of Mitogen-activated protein kinase 14 (Q16539 whole entry): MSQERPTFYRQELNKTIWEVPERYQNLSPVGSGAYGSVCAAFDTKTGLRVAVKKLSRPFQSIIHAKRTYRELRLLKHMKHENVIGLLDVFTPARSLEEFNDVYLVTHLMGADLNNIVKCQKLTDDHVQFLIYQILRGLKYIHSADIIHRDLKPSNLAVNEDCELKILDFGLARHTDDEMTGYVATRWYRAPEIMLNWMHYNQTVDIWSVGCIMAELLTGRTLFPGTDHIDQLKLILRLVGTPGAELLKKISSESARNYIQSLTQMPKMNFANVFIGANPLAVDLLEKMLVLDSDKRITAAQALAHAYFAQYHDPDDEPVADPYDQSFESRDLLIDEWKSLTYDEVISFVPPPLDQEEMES
Chain of Cyclin-dependent kinase 20 (Homo sapiens) (Q8IZL9 whole entry): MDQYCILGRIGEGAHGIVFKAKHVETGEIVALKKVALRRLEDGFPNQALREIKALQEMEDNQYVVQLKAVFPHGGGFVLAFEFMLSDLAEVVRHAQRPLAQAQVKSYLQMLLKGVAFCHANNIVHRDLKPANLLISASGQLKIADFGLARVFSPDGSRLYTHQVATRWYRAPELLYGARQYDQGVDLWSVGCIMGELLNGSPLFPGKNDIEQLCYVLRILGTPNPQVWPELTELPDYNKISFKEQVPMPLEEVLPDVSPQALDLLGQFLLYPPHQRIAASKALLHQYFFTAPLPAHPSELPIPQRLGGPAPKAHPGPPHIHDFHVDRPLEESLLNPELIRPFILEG

`C=CC(=O)Nc1ccc(C(=O)Nc2[nH]nc3c2CN(C(=O)N[C@H](CN(C)C)c2ccccc2)C3(C)C)cc1`: the % of engagement in assay [1] worked out at 4.7%.

Consider `Cc1cc([C@@H](C)Nc2ccccc2C(=O)O)c2nc(N3CCOCC3)cc(=O)n2c1` [AZD-6482], for which the % of control in assay [2] amounted to 97%; in assay [3] it was 100%.

As for `O=C(NOC[C@H](O)CO)c1ccc(F)c(F)c1Nc1ccc(I)cc1F`, in assay [4], the % of control stood at 100%.

Turning to `CN(C)CCOc1ccc(-c2nc(-c3ccncc3)c(-c3ccc4c(c3)CC/C4=N\O)[nH]2)cc1`, in assay [5], the % of control came out at 100%.

Regarding `N#Cc1cccc(-c2c[nH]c3ncnc(N4CCOCC4)c23)c1`, the % of control in assay [6] came out at 63%.

On to `Cc1cc(F)c(C(=O)Nc2cccc(-c3nncn3C(C)C)n2)cc1-n1cnc(C2CC2)c1`, for which the % of control in assay [7] was determined as 100%.

`COCC(=O)NC/C=C/c1ccc2ncnc(Nc3ccc(Oc4ccc(C)nc4)c(C)c3)c2c1` [CP-724714] yielded a % of control in assay [8] of 100%.

(Values after ChEMBL document CHEMBL5465560, “Selectivity Literature for EUbOPEN Chemogenomic Library” (2024).)
